Data published in US10604510B2, “Solid forms comprising (1E, 4E)-2-amino-N,N-dipropyl-8-(4-(pyrrolidine-1-carbonyl)phenyl)-3H-benzo[B]azepine-4-carboxami compositions thereof, and uses thereof” (Celgene Corporation, priority 2014, dated 2020).
In brackets after ≈: the same amount, converted by molar mass. Where two headings read alike, the source gives them in different places.

Assays:
Assay type in all cases: physicochemical
[1] = Solubility of Forms A and G after 40 min stirring; conditions: for solubility at 40 min: organic solvent or mixture, thermodynamic from solid
Description: (§1) For purity estimation and determination of the solubility in solution a generic in-house HPLC method was used. HPLC was performed using a Phenomenex Luna 3 μm C18 (50×4.6 mm) column and detected with a DAD detector, recording at 214 nm.

[2] = Form stability analysis (solubility and concurrent slurry experiments)
Description: As form conversions tend to happen faster at elevated temperature at 60° C., slurries were performed for the starting material used for the screening (A/G mixture) during 18 h at 60° C.
Forms J and C were identified as potential non-solvates and their stability was investigated. Form J could be eliminated as stable form because, in part, the DSC (FIG. 36) indicated an exothermic form conversion around 140° C. This leads to a form melting at 210° C., which likely represents Form G and therefore represents a monotropic relation.
Form C was obtained by drying a Form C/J mixture. The XRPD pattern appeared to contain traces of reflexes of Form J. Slurries of Form C seeded with Form A (15% w/w) in ethanol and acetone were performed during 18 h. The resulting solid was pure Form A. This also confirmed the exothermic event observed in DSC (FIG. 16) which indicated a monotropic relation to the form formed in DSC around 130° C. (melting point 210° C., which, as described herein, is likely Form G).

[3] = Slurry screening, solubility determined by HPLC; conditions: thermodynamic from solid; for solubility at 5 days: slurry stirred 5 days; for Solubility: solution
Description: as §1
The slurry experiments were performed by taking approximately 40 mg starting material and slurrying in each of the solvent mixtures as detailed Table 3 using a magnetic stir bar. Solvents were chosen as described to have a high diversity (e.g., in polarity, protic/aprotic). The solvents were not necessarily selected for pharmaceutical suitability in regards to ICH guidelines. Only as much solvent or mixtures as needed to slurry/suspend the material was used—starting from 200 μL to a maximum of 2 mL. The slurries were stirred for 5 days. The suspensions were filtered and the filter cake slightly dried to not destroy potential solvates and subjected to XRPD. In case suspensions started to run through the filter the suspensions were dried using a nitrogen stream. As the solubility was tested in the solvents, the evaporated solvent provides a small amount of solid compared to the material suspended (i.e., the slurry form still should be dominant).

[4] = Solubility of Form A at 20° C. and 40° C.; conditions: organic solvent or mixture, thermodynamic from solid
Description: as §1
To develop a Form A crystallization, a series of solubility data points was collected (Table 5). An amount of up to 15 mg was suspended in 150 μL and the mixture stirred for 2 days. Solubility was then determined by HPLC or by calculation if a solution was observed.

For `CCCN(CCC)C(=O)C1=Cc2ccc(-c3ccc(C(=O)N4CCCC4)cc3)cc2N=C(N)C1` [Compound A, (1E, 4E)-2-amino-N,N-dipropyl-8-(4-(pyrrolidine-1-carbonyl)phenyl)-3H-benzo[b]azepine-4-carboxamide], the solubility at 40 min ([1]; EtOH, 0 °C) was 4700 µg/mL (≈ 10.2 mM), the solubility at 40 min ([1]; EtOH, 22 °C) was 11700 µg/mL (≈ 25.5 mM) and the solubility at 40 min ([1]; EtOH, 60 °C) was 32100 µg/mL (≈ 70 mM). It also gave a solubility at 40 min ([1]; MEK, 0 °C) of 1800 µg/mL (≈ 3.92 mM), a solubility at 40 min ([1]; MEK, 22 °C) of 2400 µg/mL (≈ 5.23 mM) and a solubility at 40 min ([1]; MEK, 60 °C) of 3700 µg/mL (≈ 8.07 mM).

For `CCCN(CCC)C(=O)C1=Cc2ccc(-c3ccc(C(=O)N4CCCC4)cc3)cc2N=C(N)C1` [Form C, (1E, 4E)-2-amino-N,N-dipropyl-8-(4-(pyrrolidine-1-carbonyl)phenyl)-3H-benzo[b]azepine-4-carboxamide], the “stability relative to other crystalline forms” value [2] was “less stable than Forms A and G” and the “form of resulting solid after slurry” value ([2]; seeded with Form A (15% w/w), slurries in ethanol and acetone during 18 h) was “pure Form A”.

For `CCCN(CCC)C(=O)C1=Cc2ccc(-c3ccc(C(=O)N4CCCC4)cc3)cc2N=C(N)C1` [Form J, (1E, 4E)-2-amino-N,N-dipropyl-8-(4-(pyrrolidine-1-carbonyl)phenyl)-3H-benzo[b]azepine-4-carboxamide], the “stability relative to other crystalline forms” value [2] was “less stable than Form A” and the “stability relative to other crystalline forms” value ([2]; listed as J) was “less stable than Forms A and G”.

With `CCCN(CCC)C(=O)C1=Cc2ccc(-c3ccc(C(=O)N4CCCC4)cc3)cc2N=C(N)C1` [Form G, (1E, 4E)-2-amino-N,N-dipropyl-8-(4-(pyrrolidine-1-carbonyl)phenyl)-3H-benzo[b]azepine-4-carboxamide] the “stability relative to other crystalline forms” value [2] was “less stable at 25 °C in comparison to Form A”, the Solubility ([1]; EtOH, 0 ° C.) was 7600 µg/mL (≈ 16.6 mM) and the Solubility ([1]; EtOH, 22 ° C.) was 15800 µg/mL (≈ 34.5 mM). For the same compound, the Solubility ([1]; EtOH, 60 ° C.) was 36900 µg/mL (≈ 80.5 mM), the Solubility ([1]; MEK, 0 ° C.) was 2600 µg/mL (≈ 5.67 mM) and the Solubility ([1]; MEK, 22 ° C.) was 3100 µg/mL (≈ 6.76 mM). It also gave a Solubility ([1]; MEK, 60 ° C.) of 4600 µg/mL (≈ 10 mM).

With `CCCN(CCC)C(=O)C1=Cc2ccc(-c3ccc(C(=O)N4CCCC4)cc3)cc2N=C(N)C1` [starting material, (1E, 4E)-2-amino-N,N-dipropyl-8-(4-(pyrrolidine-1-carbonyl)phenyl)-3H-benzo[b]azepine-4-carboxamide] the “form of isolated solid after slurry” value ([2]; slurries during 18 h at 60° C.) was “pure Form A”, the solubility at 5 days ([3]; aqueous with cosolvent or surfactant or cyclodextrin, solvent EtOH/water 1/1) was 3220 µg/mL (≈ 7.02 mM) and the solubility at 5 days ([3]; aqueous with cosolvent or surfactant or cyclodextrin, solvent EtOH/water 3/1) was 21000 µg/mL (≈ 45.7 mM). The solubility at 5 days ([3]; aqueous with cosolvent or surfactant or cyclodextrin, solvent IPA/water 3/1) was 16900 µg/mL (≈ 36.8 mM), the solubility at 5 days ([3]; aqueous with cosolvent or surfactant or cyclodextrin, solvent ac/water 1/2) was 480 µg/mL (≈ 1.05 mM) and the Solubility ([3]; aqueous with cosolvent or surfactant or cyclodextrin, solvent HOAc/water 1/1) was > 100000 µg/mL. The solubility at 5 days ([3]; organic solvent or mixture, solvent 1-propanol) was 12000 µg/mL (≈ 26.2 mM), the solubility at 5 days ([3]; organic solvent or mixture, solvent 2-Me-THF) was 1030 µg/mL (≈ 2.25 mM) and the solubility at 5 days ([3]; organic solvent or mixture, solvent 2-propanol) was 6860 µg/mL (≈ 15 mM). The solubility at 5 days ([3]; organic solvent or mixture, solvent ACN) was 810 µg/mL (≈ 1.77 mM), the solubility at 5 days ([3]; organic solvent or mixture, solvent DCM) was > 70000 µg/mL and the solubility at 5 days ([3]; organic solvent or mixture, solvent DMSO) was 28800 µg/mL (≈ 62.8 mM). It also gave a solubility at 5 days ([3]; organic solvent or mixture, solvent EtOAc wet) of 2690 µg/mL (≈ 5.87 mM), a solubility at 5 days ([3]; organic solvent or mixture, solvent MCH) of 80 µg/mL (≈ 0.174 mM) and a solubility at 5 days ([3]; organic solvent or mixture, solvent MEK) of 3670 µg/mL (≈ 8 mM). For the same compound, the solubility at 5 days ([3]; organic solvent or mixture, solvent MIBK) was 790 µg/mL (≈ 1.72 mM), the solubility at 5 days ([3]; organic solvent or mixture, solvent NMP) was 52300 µg/mL (≈ 114 mM) and the solubility at 5 days ([3]; organic solvent or mixture, solvent TBME) was 160 µg/mL (≈ 0.349 mM). The solubility at 5 days ([3]; organic solvent or mixture, solvent THF) was 5710 µg/mL (≈ 12.5 mM), the solubility at 5 days ([3]; organic solvent or mixture, solvent acetone) was 1370 µg/mL (≈ 2.99 mM) and the solubility at 5 days ([3]; organic solvent or mixture, solvent chlorobenzene) was 1810 µg/mL (≈ 3.95 mM). For the same compound, the solubility at 5 days ([3]; organic solvent or mixture, solvent diethylether) was 20 µg/mL (≈ 0.0436 mM), the solubility at 5 days ([3]; organic solvent or mixture, solvent dioxane) was 5100 µg/mL (≈ 11.1 mM) and the solubility at 5 days ([3]; organic solvent or mixture, solvent ethanol) was 11600 µg/mL (≈ 25.3 mM). It also gave a solubility at 5 days ([3]; organic solvent or mixture, solvent ethyl acetate) of 570 µg/mL (≈ 1.24 mM), a solubility at 5 days ([3]; organic solvent or mixture, solvent heptane) of 20 µg/mL (≈ 0.0436 mM) and a solubility at 5 days ([3]; organic solvent or mixture, solvent iPrOAc) of 600 µg/mL (≈ 1.31 mM). The solubility at 5 days ([3]; organic solvent or mixture, solvent methanol) was 29800 µg/mL (≈ 65.1 mM), the solubility at 5 days ([3]; organic solvent or mixture, solvent methyl acetate) was 940 µg/mL (≈ 2.05 mM) and the solubility at 5 days ([3]; organic solvent or mixture, solvent toluene) was 450 µg/mL (≈ 0.981 mM). The Solubility ([3]; organic solvent or mixture, solvent trifluoroethanol) was > 130000 µg/mL and the solubility at 5 days ([3]; solvent water) was 40 µg/mL (≈ 0.0872 mM).

For `CCCN(CCC)C(=O)C1=Cc2ccc(-c3ccc(C(=O)N4CCCC4)cc3)cc2N=C(N)C1` [Form A, (1E, 4E)-2-amino-N,N-dipropyl-8-(4-(pyrrolidine-1-carbonyl)phenyl)-3H-benzo[b]azepine-4-carboxamide], the “stability relative to other crystalline forms” value [2] was “more stable than Form G at 20 °C”, the “thermodynamic stability of the crystalline form” value ([2]; from 0° C. to 60° C.) was “thermodynamically most stable form” and the solubility at 2 days ([4]; 2-PrOH, 20° C., stirred 2 days) was 4500 µg/mL (≈ 9.81 mM). The solubility at 2 days ([4]; 2-PrOH, 40° C., stirred 2 days) was 9590 µg/mL (≈ 20.9 mM), the solubility at 2 days ([4]; DMSO, 20° C., stirred 2 days) was 21600 µg/mL (≈ 47.1 mM) and the solubility at 2 days ([4]; DMSO, 40° C., stirred 2 days) was 50900 µg/mL (≈ 111 mM). It also gave a solubility at 2 days ([4]; DMSO/EtOAc 1:1 v/v, 20° C., stirred 2 days) of 15000 µg/mL (≈ 32.7 mM), a solubility at 2 days ([4]; DMSO/EtOAc 1:1 v/v, 40° C., stirred 2 days) of 36900 µg/mL (≈ 80.5 mM) and a solubility at 2 days ([4]; DMSO/TBME 1:1 v/v, 20° C., stirred 2 days) of 17200 µg/mL (≈ 37.5 mM). It also gave a solubility at 2 days ([4]; DMSO/TBME 1:1 v/v, 40° C., stirred 2 days) of 44600 µg/mL (≈ 97.3 mM), a solubility at 2 days ([4]; EtOH, 20° C., stirred 2 days) of 8500 µg/mL (≈ 18.5 mM) and a solubility at 2 days ([4]; EtOH, 40° C., stirred 2 days) of 24000 µg/mL (≈ 52.3 mM). The solubility at 2 days ([4]; THF, 20° C., stirred 2 days) was 3700 µg/mL (≈ 8.07 mM), the solubility at 2 days ([4]; THF, 40° C., stirred 2 days) was 7700 µg/mL (≈ 16.8 mM) and the solubility at 2 days ([4]; THF/EtOH 8:2 v/v, 20° C., stirred 2 days) was 13400 µg/mL (≈ 29.2 mM). The solubility at 2 days ([4]; THF/EtOH 8:2 v/v, 40° C., stirred 2 days) was 27800 µg/mL (≈ 60.6 mM), the solubility at 2 days ([4]; THF/H2O 8:2 v/v, 20° C., stirred 2 days) was 38600 µg/mL (≈ 84.2 mM) and the solubility at 2 days ([4]; THF/H2O 8:2 v/v, 40° C., clear solution with 10 vol of solvent mix) was > 100000 µg/mL. The solubility at 2 days ([4]; Toluene/2-PrOH 7:3 v/v, 20° C., stirred 2 days) was 23100 µg/mL (≈ 50.4 mM), the solubility at 2 days ([4]; Toluene/2-PrOH 7:3 v/v, 40° C., stirred 2 days) was 45900 µg/mL (≈ 100 mM) and the solubility at 2 days ([4]; Toluene/MeOH 7:3 v/v, 20° C., clear solution with 10 vol of solvent mix) was > 100000 µg/mL. The solubility at 2 days ([4]; Toluene/MeOH 7:3 v/v, 40° C., clear solution with 10 vol of solvent mix) was > 100000 µg/mL.

For `CCCN(CCC)C(=O)C1=Cc2ccc(-c3ccc(C(=O)N4CCCC4)cc3)cc2N=C(N)C1` [Form H, (1E, 4E)-2-amino-N,N-dipropyl-8-(4-(pyrrolidine-1-carbonyl)phenyl)-3H-benzo[b]azepine-4-carboxamide], the “stability relative to other crystalline forms” value [2] was “Form A is more stable than Form H”.
